Patent publication US10668043B2, “Potentiated antimicrobial agents” (priority 2014, dated 2020)
Values after ≈ are worked out from the molar mass of the structure shown. Like-named read-outs stand apart in the source and are kept apart here.

Tests used:
Pasteurella = test: etest on agar containing the booster; format: cell-based
Text: (§1) The corresponding tests are made based on the usual MIC test: the etest® (Biomerieux) strip is deposited onto the surface of a seeded agar medium in which the booster has been incorporated.
(§2) The control corresponds to the test made without cineol. A control is made in each solvent tested: distilled water, Tween/water and DMSO. • ED control=antibiotic alone in distilled water • DMSO control=antibiotic alone in DMSO • TE control=antibiotic alone in Tween® 80
Other e-tests are also made on Pasteurella.

E. coli = test: etest on agar containing the booster; format: cell-based; settings: Escherichia coli
Text: as §1, with “incorporated. This test enables solvent effect risks, that is a possible interaction with the solvent used in vitro, to be minimised.” for “incorporated.”
as §2

Staphylococcus = test: etest on agar containing the booster; format: cell-based; settings: MRSA 10178
Text: as §1, with “incorporated. This test enables solvent effect risks, that is a possible interaction with the solvent used in vitro, to be minimised.” for “incorporated.”
as §2

[1] = mouse, intravenous; cited from earlier work
[2] = orally; two mammal species (cats and rats); cited from earlier work
MSSA 8238 = settings: Sc.; gentamycin 6 mg/kg or amoxicillin 30 mg/kg, cineol 30 mg/kg where present
Method: To Balb/c mice, is injected (Sc.) the antimicrobial product or the antimicrobial+booster mixture.
At different post-injection times, the mice are euthanised, and blood sampled, heparined and centrifuged to extract plasma thereof
Antibacterial effects are measured after 24 h incubation. The successive dilutions enable the antimicrobial effect to be determined and compared with the MIC. The efficient concentration/MIC ratio is thus determined.

[3] = strain 14012, 5 mg cineol water
[4] = strain 14012, 10 mg cineol DMSO
[5] = strain 14012, 10 mg cineol water
[6] = strain 14014, 5 mg cineol water
[7] = strain 14014, 10 mg cineol DMSO
[8] = strain 14014, 10 mg cineol water
[9] = Coli 8150, Cineol 1 mg DMSO, read-out: MIC
[10] = Coli 8150, Cineol 1 mg Tween/water, read-out: MIC
[11] = Coli 8150, Cineol 4 mg DMSO, read-out: MIC
[12] = Coli 8150, Cineol 4 mg Tween/water, read-out: MIC
[13] = Coli 8150, Cineol 16 mg DMSO, read-out: MIC
[14] = Coli 8150, Cineol 16 mg Tween/water, read-out: MIC
[15] = Coli 8150, DMSO control (antibiotic alone), read-out: MIC
[16] = Coli 8150, ED control (antibiotic alone in distilled water), read-out: MIC
[17] = Coli 8150, Tween water control (antibiotic alone), read-out: MIC
[18] = DMSO control (antibiotic alone)
[19] = ED control (antibiotic alone in distilled water)
[20] = Tween water control (antibiotic alone)

CO[C@@]1(NC(=O)Cc2cccs2)C(=O)N2C(C(=O)O)=C(COC(N)=O)CS[C@@H]21 [Cefoxitin]
MIC (e-test) (Pasteurella; strain 14012, 5 mg cineol DMSO): 0.5 µg/mL (≈ 1.17 µM)
MIC (e-test) (Pasteurella; strain 14012, 5 mg cineol TE): 0.5 µg/mL (≈ 1.17 µM)
MIC (e-test) (Pasteurella; [3]): 0.5 µg/mL (≈ 1.17 µM)
MIC (e-test) (Pasteurella; [4]): 0.38 µg/mL (≈ 0.889 µM)
MIC (e-test) (Pasteurella; strain 14012, 10 mg cineol TE): 0.5 µg/mL (≈ 1.17 µM)
MIC (e-test) (Pasteurella; [5]): 0.5 µg/mL (≈ 1.17 µM)
MIC (e-test) (Pasteurella; strain 14012, DMSO control): 0.5 µg/mL (≈ 1.17 µM)
MIC (e-test) (Pasteurella; strain 14012, ED control): 0.5 µg/mL (≈ 1.17 µM)
MIC (e-test) (Pasteurella; strain 14012, TE control): 0.75 µg/mL (≈ 1.75 µM)
MIC (e-test) (Pasteurella; strain 14014, 5 mg cineol DMSO): 0.19 µg/mL (≈ 0.444 µM)
MIC (e-test) (Pasteurella; strain 14014, 5 mg cineol TE): 0.38 µg/mL (≈ 0.889 µM)
MIC (e-test) (Pasteurella; [6]): 0.5 µg/mL (≈ 1.17 µM)
MIC (e-test) (Pasteurella; [7]): 0.5 µg/mL (≈ 1.17 µM)
MIC (e-test) (Pasteurella; strain 14014, 10 mg cineol TE): 0.38 µg/mL (≈ 0.889 µM)
MIC (e-test) (Pasteurella; [8]): 0.38 µg/mL (≈ 0.889 µM)
MIC (e-test) (Pasteurella; strain 14014, DMSO control): 0.38 µg/mL (≈ 0.889 µM)
MIC (e-test) (Pasteurella; strain 14014, ED Control): 0.38 µg/mL (≈ 0.889 µM)
MIC (e-test) (Pasteurella; strain 14014, TE control): 0.5 µg/mL (≈ 1.17 µM)
MIC (E. coli; Coli 8138 (penicillinase), Cineol 1 mg DMSO, read-out: MIC): 4 µg/mL (≈ 9.36 µM)
MIC (E. coli; Coli 8138 (penicillinase), Cineol 1 mg Tween/water, read-out: MIC): 4 µg/mL (≈ 9.36 µM)
MIC (E. coli; Coli 8138 (penicillinase), Cineol 4 mg DMSO, read-out: MIC): 4 µg/mL (≈ 9.36 µM)
MIC (E. coli; Coli 8138 (penicillinase), Cineol 4 mg Tween/water, read-out: MIC): 3 µg/mL (≈ 7.02 µM)
MIC (E. coli; Coli 8138 (penicillinase), Cineol 16 mg DMSO, read-out: MIC): 4 µg/mL (≈ 9.36 µM)
MIC (E. coli; Coli 8138 (penicillinase), Cineol 16 mg Tween/water, read-out: MIC): 1 µg/mL (≈ 2.34 µM)
MIC (E. coli; Coli 8138 (penicillinase), DMSO control (antibiotic alone), read-out: MIC): 6 µg/mL (≈ 14 µM)
MIC (E. coli; Coli 8138 (penicillinase), ED control (antibiotic alone in distilled water), read-out: MIC): 6 µg/mL (≈ 14 µM)
MIC (E. coli; Coli 8138 (penicillinase), Tween water control (antibiotic alone), read-out: MIC): 6 µg/mL (≈ 14 µM)
MIC (E. coli; [9]): 8 µg/mL (≈ 18.7 µM)
MIC (E. coli; [10]): 3 µg/mL (≈ 7.02 µM)
MIC (E. coli; [11]): 3 µg/mL (≈ 7.02 µM)
MIC (E. coli; [12]): 3 µg/mL (≈ 7.02 µM)
MIC (E. coli; [13]): 3 µg/mL (≈ 7.02 µM)
MIC (E. coli; [14]): 1 µg/mL (≈ 2.34 µM)
MIC (E. coli; [15]): 8 µg/mL (≈ 18.7 µM)
MIC (E. coli; [16]): 3 µg/mL (≈ 7.02 µM)
MIC (E. coli; [17]): 6 µg/mL (≈ 14 µM)

CCC[C@@H]1C[C@@H](C(=O)N[C@@H]([C@H]2O[C@H](SC)[C@H](O)[C@@H](O)[C@H]2O)[C@H](C)Cl)N(C)C1 [Clindamycin]
MIC (Staphylococcus; Cineol 1 mg DMSO, read-out: MIC): 0.094 µg/mL (≈ 0.221 µM)
MIC (Staphylococcus; Cineol 1 mg Tween/water, read-out: MIC): 0.064 µg/mL (≈ 0.151 µM)
MIC (Staphylococcus; Cineol 4 mg DMSO, read-out: MIC): 0.064 µg/mL (≈ 0.151 µM)
MIC (Staphylococcus; Cineol 4 mg Tween/water, read-out: MIC): 0.064 µg/mL (≈ 0.151 µM)
MIC (Staphylococcus; Cineol 16 mg DMSO, read-out: MIC): 0.047 µg/mL (≈ 0.111 µM)
MIC (Staphylococcus; Cineol 16 mg Tween/water, read-out: MIC): 0.047 µg/mL (≈ 0.111 µM)
MIC (Staphylococcus; DMSO control (antibiotic alone), read-out: MIC): 0.064 µg/mL (≈ 0.151 µM)
MIC (Staphylococcus; ED control (antibiotic alone in distilled water), read-out: MIC): 0.094 µg/mL (≈ 0.221 µM)
MIC (Staphylococcus; Tween water control (antibiotic alone), read-out: MIC): 0.19 µg/mL (≈ 0.447 µM)

C[C@@H](O)[C@H]1C(=O)N2C(C(=O)O)=C(S[C@@H]3CN[C@H](C(=O)N(C)C)C3)[C@H](C)[C@H]12 [Meropenem]
MIC (e-test) (Pasteurella; strain 14012, 5 mg cineol DMSO): 0.006 µg/mL (≈ 0.0156 µM)
MIC (e-test) (Pasteurella; strain 14012, 5 mg cineol TE): 0.008 µg/mL (≈ 0.0209 µM)
MIC (e-test) (Pasteurella; [3]): 0.006 µg/mL (≈ 0.0156 µM)
MIC (e-test) (Pasteurella; [4]): 0.006 µg/mL (≈ 0.0156 µM)
MIC (e-test) (Pasteurella; strain 14012, 10 mg cineol TE): 0.008 µg/mL (≈ 0.0209 µM)
MIC (e-test) (Pasteurella; [5]): 0.008 µg/mL (≈ 0.0209 µM)
MIC (e-test) (Pasteurella; strain 14012, DMSO control): 0.008 µg/mL (≈ 0.0209 µM)
MIC (e-test) (Pasteurella; strain 14012, ED control): 0.008 µg/mL (≈ 0.0209 µM)
MIC (e-test) (Pasteurella; strain 14012, TE control): 0.023 µg/mL (≈ 0.06 µM)
MIC (e-test) (Pasteurella; strain 14014, 5 mg cineol DMSO): 0.012 µg/mL (≈ 0.0313 µM)
MIC (e-test) (Pasteurella; strain 14014, 5 mg cineol TE): 0.016 µg/mL (≈ 0.0417 µM)
MIC (e-test) (Pasteurella; [6]): 0.016 µg/mL (≈ 0.0417 µM)
MIC (e-test) (Pasteurella; [7]): 0.016 µg/mL (≈ 0.0417 µM)
MIC (e-test) (Pasteurella; strain 14014, 10 mg cineol TE): 0.012 µg/mL (≈ 0.0313 µM)
MIC (e-test) (Pasteurella; [8]): 0.016 µg/mL (≈ 0.0417 µM)
MIC (e-test) (Pasteurella; strain 14014, DMSO control): 0.016 µg/mL (≈ 0.0417 µM)
MIC (e-test) (Pasteurella; strain 14014, ED Control): 0.012 µg/mL (≈ 0.0313 µM)
MIC (e-test) (Pasteurella; strain 14014, TE control): 0.012 µg/mL (≈ 0.0313 µM)
MIC (E. coli; [9]): 0.064 µg/mL (≈ 0.167 µM)
MIC (E. coli; [10]): 0.064 µg/mL (≈ 0.167 µM)
MIC (E. coli; [11]): 0.064 µg/mL (≈ 0.167 µM)
MIC (E. coli; [12]): 0.047 µg/mL (≈ 0.123 µM)
MIC (E. coli; [13]): 0.064 µg/mL (≈ 0.167 µM)
MIC (E. coli; [14]): 0.1 µg/mL (≈ 0.261 µM)
MIC (E. coli; [15]): 0.094 µg/mL (≈ 0.245 µM)
MIC (E. coli; [16]): 0.047 µg/mL (≈ 0.123 µM)
MIC (E. coli; [17]): 0.094 µg/mL (≈ 0.245 µM)

CC1(C)S[C@@H]2[C@H](NC(=O)Cc3ccccc3)C(=O)N2[C@H]1C(=O)O [Penicillin G]
MIC (Staphylococcus; Cineol 1 mg DMSO): 0.75^+ mg/L
MIC (Staphylococcus; Cineol 1 mg Tween/water): 0.5 µg/mL (≈ 1.5 µM)
MIC (Staphylococcus; Cineol 4 mg DMSO): 0.5^+ mg/L
MIC (Staphylococcus; Cineol 4 mg Tween/water): 0.38^+ mg/L
MIC (Staphylococcus; Cineol 16 mg DMSO): 0.19^+ mg/L
MIC (Staphylococcus; Cineol 16 mg Tween/water): 0.125^+ mg/L
MIC (Staphylococcus; [18]): 1.5 µg/mL (≈ 4.49 µM)
MIC (Staphylococcus; [19]): 1 µg/mL (≈ 2.99 µM)
MIC (Staphylococcus; [20]): 0.5 µg/mL (≈ 1.5 µM)

CN(C)c1cc(NC(=O)CNC(C)(C)C)c(O)c2c1C[C@H]1C[C@H]3[C@H](N(C)C)C(O)=C(C(N)=O)C(=O)[C@@]3(O)C(O)=C1C2=O [Tigecycline]
MIC (Staphylococcus; Cineol 1 mg DMSO): 0.19 µg/mL (≈ 0.324 µM)
MIC (Staphylococcus; Cineol 1 mg Tween/water): 0.125 µg/mL (≈ 0.213 µM)
MIC (Staphylococcus; Cineol 4 mg DMSO): 0.19 µg/mL (≈ 0.324 µM)
MIC (Staphylococcus; Cineol 4 mg Tween/water): 0.094 µg/mL (≈ 0.161 µM)
MIC (Staphylococcus; Cineol 16 mg DMSO): 0.125 µg/mL (≈ 0.213 µM)
MIC (Staphylococcus; Cineol 16 mg Tween/water): 0.094 µg/mL (≈ 0.161 µM)
MIC (Staphylococcus; [18]): 0.25 µg/mL (≈ 0.427 µM)
MIC (Staphylococcus; [19]): 0.125 µg/mL (≈ 0.213 µM)
MIC (Staphylococcus; [20]): 0.125 µg/mL (≈ 0.213 µM)
MIC (E. coli; Coli 8150, Cineol 1 mg DMSO): 0.19 µg/mL (≈ 0.324 µM)
MIC (E. coli; Coli 8150, Cineol 1 mg Tween/water): 0.125 µg/mL (≈ 0.213 µM)
MIC (E. coli; Coli 8150, Cineol 4 mg DMSO): 0.125 µg/mL (≈ 0.213 µM)
MIC (E. coli; Coli 8150, Cineol 4 mg Tween/water): 0.094 µg/mL (≈ 0.161 µM)
MIC (E. coli; Coli 8150, Cineol 16 mg DMSO): 0.064 µg/mL (≈ 0.109 µM)
MIC (E. coli; Coli 8150, Cineol 16 mg Tween/water): 0.1 µg/mL (≈ 0.171 µM)
MIC (E. coli; Coli 8150, DMSO control (antibiotic alone)): 0.19 µg/mL (≈ 0.324 µM)
MIC (E. coli; Coli 8150, ED control (antibiotic alone in distilled water)): 0.125 µg/mL (≈ 0.213 µM)
MIC (E. coli; Coli 8150, Tween water control (antibiotic alone)): 0.125 µg/mL (≈ 0.213 µM)

Cc1ccc(C(C)C)cc1O [carvacrol]
LD 50 [1]: 80 mg/kg
lowest letal dose [2]: 100 mg/kg

gentamycin
Time spent beyond the MIC (MSSA 8238): <5 h
